What was measured:
Type in all cases: ADME, organism-based, Sus scrofa
Conditions in all cases: read-out: Stability
[1] = Metabolic stability in iv dosed pig plasma after 50 mins
[2] = Metabolic stability in iv dosed pig plasma after 30 mins
[3] = Metabolic stability in iv dosed pig plasma after 30 seconds
[4] = Metabolic stability in iv dosed pig plasma after 10 mins
[5] = Metabolic stability in iv dosed pig plasma after 2 mins

Work on `[11CH3]n1cccc1C(=O)[C@@H](c1ccccc1)N1CCCC1` yielded a remaining at 50 min [1] of 24%, a remaining at 0.5 h [2] of 41% and a remaining at 0.5 min [3] of 99.7%. For the same molecule, the remaining at 10 min [4] was 68% and the remaining at 2 min [5] was 98%.

In the case of `[11CH3]n1cccc1C(=O)[C@H](c1ccccc1)N1CCCC1`, the remaining at 50 min [1] is reported as 24%, the remaining at 0.5 h [2] is reported as 41% and the remaining at 0.5 min [3] is reported as 99.7%. It also gave a remaining at 10 min [4] of 68% and a remaining at 2 min [5] of 98%.

Source: ChEMBL document CHEMBL1142324, “Synthesis and cerebral uptake of 1-(1-[(11)C]methyl-1H-pyrrol-2-yl)-2-phenyl-2-(1-pyrrolidinyl)ethanone, a novel tracer for positron emission tomography studies of monoamine oxidase type A” (J Med Chem, 2008)
